“Also recorded” adds a separate entry of the source. Peptide text beside a SMILES is read from it.
Legend:
bovine brain calmodulin [1] = target: T1, bovine brain calmodulin (Bos taurus, UniProt P62157); experiment: stopped-flow measurement of kisom of calmodulin-binding peptides; settings: changes in tryptophan fluorescence
T1 construct: Complexes between calmodulin from bovine brain (1 μM, Sigma); purchased Sigma; host or cells: bovine brain (tissue-derived)
From the text: It has been shown by Torok and Trentham (1994) that smooth muscle MLCK-derived peptides bind to calmodulin with a biphasic kinetic according to the scheme: [drawing 1]
in which P is the peptide, C is calmodulin, P-C is the first complex formed on association of P and C, which then undergoes a conformational isomerisation to P-C*.
(§1) For a kinetic and thermodynamic characterisation of the binding of the peptides of the present invention to bovine brain calmodulin, we have measured the kinetic isomerisation, association, and dissociation constants from which dissociation constants can be derived.
kisom constants have been measured by stopped-flow, detecting changes in tryptophan fluorescence for all the peptides except 3 (SEQ ID NO:4), in which the tryptophan is replaced by alanine.

bovine brain calmodulin [2] = target: T1, bovine brain calmodulin; experiment: BIAcore surface plasmon resonance, kon and koff of calmodulin binding to biotinylated peptides; settings: for koff / kon / increase in kon with respect to the wild-type peptide 1: BIAcore; for koff: read-out: koff (s^-1)^B; for kon: read-out: kon (s^-1 M^-1)^B
From the text: as §1
koff =k-1·k-2 /(k+2 +k-2)
Real-time interaction analysis by surface plasmon resonance on a BIAcore instrument (Jonsson et al., 1991) was used to determine kon and koff constants. Biotinylated peptides 1-17 were bound to commercially available streptavidin-coated microsensor chips (Pharmacia Biosensor), in order to achieve a surface capacity of 100-200 surface plasmon resonance units of calmodulin bound. Different concentrations of calmodulin (5, 10, 20, 50 and 100 nM in the order of FIG. 2) were injected and allowed to associate with the peptides. Regeneration of the surface was achieved by injection of 5 μl TBS+[…] which dissociates the calmodulin-peptide complex.

calmodulin = calmodulin (Bos taurus, UniProt P62157); experiment: koff by competition experiments, native PAGE of fluorescein-labelled peptide/calmodulin complexes; type: binding, bovine; set-up: Complexes between calmodulin from bovine brain (1 μM, Sigma); purchased Sigma; host or cells: bovine brain (tissue-derived); settings: for dissociation from calmodulin in competition with excess unlabelled peptide, in words: FIG. 3; for koff: competition with 30-fold excess unlabelled peptide, room temperature, gel buffer, read-out: koff (s^-1)^C
Protocol: Complexes between calmodulin from bovine brain (1 μM, Sigma) and fluorescein-labelled sMLCK-derived peptides (as described in Table 1 (SEQ ID NOS:2-18)) were prepared in gel buffer (25% gel mix [4 g sucrose+1 mg bromophenol blue in water to give a 10 ml solution]+75% TBSC [50 mM TRIS pH 7.4, […]+50 μM CaCl2)] and run on a 15% native PAGE gel (5 ml 30% acrylamide-bisacrylamide solution+4.5 ml water+0.5 ml 3M Tris, pH 8.8, +1 μl 1M CaCl2 polymerised with 30 μl 25% ammonium persulphate and 9 μl TEMED) using 14.4 g/l glycine+3 g/l Tris-base+0.1 mM CaCl2 as running buffer. Peptides were labelled either with iodoacetamido fluorescein (Molecular Probes) or with iodoacetamido-LC-biotin (Pierce) essentially as previously described by Neri et al., (1995). In these conditions, the fluorescence of the positively-charged labelled peptides can be detected only if they form a stable complex with calmodulin.
In order to obtain an independent experimental confirmation if the BIAcore results, koff constants for peptides 1-17 towards calmodulin were determined by competition experiments. 30 nM fluorescein-labelled peptide/calmodulin complexes in gel buffer were competed at room temperature for different times with 30-fold excess of unlabelled peptide. The resulting mixtures were run on native PAGE gels and imaged by LUANA as described above. The bands in the image obtained were integrated using the LUANA software (Neri et al., 1996) and the corresponding intersities plotted versus time and fitted with a single exponential, from which koff constants were derived. In order to normalise band intensities against pipetting errors, the samples contained 6 nM free fluorescein which ran with the front. The fluorescein bands were integrated and used to normalise the calmodulin/fluorescent peptide complex band intensity. The results of competitions for peptides 1, 2, 3, 6, 9, and 14 are shown in this FIG. 3. Incubation time in minutes is indicated under the lanes.
The volumes of the bands were plotted versus competition time and fitted to a single exponential, from which koff values were derived.
The fastest competitions (peptides 1-4, 9 and 13, SEQ ID NOS:2-5,10, and 14) were over by the time the calmodulin/fluorescent peptide complex entered the gel (approximately 5-10 minutes from pipetting a molar excess of unlabelled peptide; FIG. 3), from which a condition on the off-rate constant koff >1×10^-3 s^-1 was derived. Even for these fast off-rates, complexes can be detected by native polyacrylamide gel electrophoresis because of the well known gel "cage effect" (Fried and Crothers, 1981; Garner and Revzin, 1981).

Row | Compound | kisom. (s^-1)^A (bovine brain calmodulin [1]) | koff (bovine brain calmodulin [2]) [s⁻¹] | kon (bovine brain calmodulin [2]) [M⁻¹ s⁻¹] | dissociation from calmodulin in competition with excess unlabelled peptide, in words (calmodulin) | koff (calmodulin) [s⁻¹] | increase in kon with respect to the wild-type peptide 1 (bovine brain calmodulin [2]) | improvement of koff with respect to wild type, in words (bovine brain calmodulin [2]) | improvement in Kd / affinity for calmodulin over the wild type peptide, in words (bovine brain calmodulin [2]; Table 1)
1 | CC[C@H](C)[C@H](NC(=O)[C@H](Cc1ccccc1)NC(=O)[C@H](CC(N)=O)NC(=O)[C@H](CCCCN)NC(=O)[C@H](CCCCN)NC(=O)[C@H](Cc1c[nH]c2ccccc12)NC(=O)[C@H](CCCNC(=N)N)NC(=O)[C@H](C)NC(=O)[C@H](C)NC(=O)[C@H](C)NC(=O)[C@@H](N)CS)C(=O)N[C@@H](C)C(=O)N[C@H](C(=O)N[C@@H](CO)C(=O)N[C@@H](C)C(=O)N[C@@H](C)C(=O)N[C@@H](CC(N)=O)C(=O)N[C@@H](CCCNC(=N)N)C(=O)N[C@@H](Cc1ccccc1)C(=O)N[C@@H](CCCCN)C(=O)N[C@@H](CCCCN)C(=O)N[C@H](C(=O)N[C@@H](CO)C(N)=O)[C@@H](C)CC)C(C)C [Peptide 1, CAAA-RWKKNFIAVSAANRFKKIS-CONH2] (H-CAAARWKKNFIAVSAANRFKKIS-NH2; N-terminus assumed) | 1.9 (10.7) × 10^-1 s^-1 | 0.0024 | 650000 | dissociated from calmodulin in a few minutes | ≥ 0.001 | – | – | –
2 | CC[C@H](C)[C@H](NC(=O)[C@H](Cc1ccccc1)NC(=O)[C@H](CC(N)=O)NC(=O)[C@H](CCCCN)NC(=O)[C@H](CCCCN)NC(=O)[C@H](Cc1c[nH]c2ccccc12)NC(=O)[C@H](C)NC(=O)[C@H](C)NC(=O)[C@H](C)NC(=O)[C@H](C)NC(=O)[C@@H](N)CS)C(=O)N[C@@H](C)C(=O)N[C@H](C(=O)N[C@@H](CO)C(=O)N[C@@H](C)C(=O)N[C@@H](C)C(=O)N[C@@H](CC(N)=O)C(=O)N[C@@H](CCCNC(=N)N)C(=O)N[C@@H](Cc1ccccc1)C(=O)N[C@@H](CCCCN)C(=O)N[C@@H](CCCCN)C(=O)N[C@H](C(=O)N[C@@H](CO)C(N)=O)[C@@H](C)CC)C(C)C [Peptide 2] (H-CAAAAWKKNFIAVSAANRFKKIS-NH2; N-terminus assumed) | 1.2 (10.5) × 10^-1 s^-1 | 0.0015 | 3e+06 | dissociated from calmodulin in a few minutes | ≥ 0.001 | 4-5 fold | – | –
3 | CC[C@H](C)[C@H](NC(=O)[C@H](Cc1ccccc1)NC(=O)[C@H](CC(N)=O)NC(=O)[C@H](CCCCN)NC(=O)[C@H](CCCCN)NC(=O)[C@H](C)NC(=O)[C@H](CCCNC(=N)N)NC(=O)[C@H](C)NC(=O)[C@H](C)NC(=O)[C@H](C)NC(=O)[C@@H](N)CS)C(=O)N[C@@H](C)C(=O)N[C@H](C(=O)N[C@@H](CO)C(=O)N[C@@H](C)C(=O)N[C@@H](C)C(=O)N[C@@H](CC(N)=O)C(=O)N[C@@H](CCCNC(=N)N)C(=O)N[C@@H](Cc1ccccc1)C(=O)N[C@@H](CCCCN)C(=O)N[C@@H](CCCCN)C(=O)N[C@H](C(=O)N[C@@H](CO)C(N)=O)[C@@H](C)CC)C(C)C [Peptide 3] (H-CAAARAKKNFIAVSAANRFKKIS-NH2; N-terminus assumed) | – | 0.005 | 3.2e+06 | dissociated from calmodulin in a few minutes | ≥ 0.001 | 4-5 fold | – | –
4 | CC[C@H](C)[C@H](NC(=O)[C@H](Cc1ccccc1)NC(=O)[C@H](CC(N)=O)NC(=O)[C@H](CCCCN)NC(=O)[C@H](C)NC(=O)[C@H](Cc1c[nH]c2ccccc12)NC(=O)[C@H](CCCNC(=N)N)NC(=O)[C@H](C)NC(=O)[C@H](C)NC(=O)[C@H](C)NC(=O)[C@@H](N)CS)C(=O)N[C@@H](C)C(=O)N[C@H](C(=O)N[C@@H](CO)C(=O)N[C@@H](C)C(=O)N[C@@H](C)C(=O)N[C@@H](CC(N)=O)C(=O)N[C@@H](CCCNC(=N)N)C(=O)N[C@@H](Cc1ccccc1)C(=O)N[C@@H](CCCCN)C(=O)N[C@@H](CCCCN)C(=O)N[C@H](C(=O)N[C@@H](CO)C(N)=O)[C@@H](C)CC)C(C)C [Peptide 4] (H-CAAARWAKNFIAVSAANRFKKIS-NH2; N-terminus assumed) | 2.4 (10.6) × 10^-1 s^-1 | 0.003 | 1.3e+06 | – | ≥ 0.001 | – | – | –
5 | CC[C@H](C)[C@H](NC(=O)[C@H](Cc1ccccc1)NC(=O)[C@H](CC(N)=O)NC(=O)[C@H](C)NC(=O)[C@H](CCCCN)NC(=O)[C@H](Cc1c[nH]c2ccccc12)NC(=O)[C@H](CCCNC(=N)N)NC(=O)[C@H](C)NC(=O)[C@H](C)NC(=O)[C@H](C)NC(=O)[C@@H](N)CS)C(=O)N[C@@H](C)C(=O)N[C@H](C(=O)N[C@@H](CO)C(=O)N[C@@H](C)C(=O)N[C@@H](C)C(=O)N[C@@H](CC(N)=O)C(=O)N[C@@H](CCCNC(=N)N)C(=O)N[C@@H](Cc1ccccc1)C(=O)N[C@@H](CCCCN)C(=O)N[C@@H](CCCCN)C(=O)N[C@H](C(=O)N[C@@H](CO)C(N)=O)[C@@H](C)CC)C(C)C [Peptide 5] (H-CAAARWKANFIAVSAANRFKKIS-NH2; N-terminus assumed) | 7.4 (11.0) × 10^-2 s^-1 | 0.00029 | 1.1e+06 | – | 0.00021 | – | – | –
6 | CC[C@H](C)[C@H](NC(=O)[C@H](Cc1ccccc1)NC(=O)[C@H](C)NC(=O)[C@H](CCCCN)NC(=O)[C@H](CCCCN)NC(=O)[C@H](Cc1c[nH]c2ccccc12)NC(=O)[C@H](CCCNC(=N)N)NC(=O)[C@H](C)NC(=O)[C@H](C)NC(=O)[C@H](C)NC(=O)[C@@H](N)CS)C(=O)N[C@@H](C)C(=O)N[C@H](C(=O)N[C@@H](CO)C(=O)N[C@@H](C)C(=O)N[C@@H](C)C(=O)N[C@@H](CC(N)=O)C(=O)N[C@@H](CCCNC(=N)N)C(=O)N[C@@H](Cc1ccccc1)C(=O)N[C@@H](CCCCN)C(=O)N[C@@H](CCCCN)C(=O)N[C@H](C(=O)N[C@@H](CO)C(N)=O)[C@@H](C)CC)C(C)C [Peptide 6] (H-CAAARWKKAFIAVSAANRFKKIS-NH2; N-terminus assumed) | 1.8 (10.9) × 10^-1 s^-1 | ≥ 0.0001 | 980000 | hardly competed by an excess of unlabelled peptide after 1000 minutes | 2.2e-06 | – | largest improvements | greatest improvement in affinity; also recorded: greatest improvement in Kd
7 | CC[C@H](C)[C@H](NC(=O)[C@H](C)NC(=O)[C@H](CC(N)=O)NC(=O)[C@H](CCCCN)NC(=O)[C@H](CCCCN)NC(=O)[C@H](Cc1c[nH]c2ccccc12)NC(=O)[C@H](CCCNC(=N)N)NC(=O)[C@H](C)NC(=O)[C@H](C)NC(=O)[C@H](C)NC(=O)[C@@H](N)CS)C(=O)N[C@@H](C)C(=O)N[C@H](C(=O)N[C@@H](CO)C(=O)N[C@@H](C)C(=O)N[C@@H](C)C(=O)N[C@@H](CC(N)=O)C(=O)N[C@@H](CCCNC(=N)N)C(=O)N[C@@H](Cc1ccccc1)C(=O)N[C@@H](CCCCN)C(=O)N[C@@H](CCCCN)C(=O)N[C@H](C(=O)N[C@@H](CO)C(N)=O)[C@@H](C)CC)C(C)C [Peptide 7] (H-CAAARWKKNAIAVSAANRFKKIS-NH2; N-terminus assumed) | 2.5 (10.7) × 10^-1 s^-1 | 0.00039 | 900000 | – | 0.0006 | – | – | –
